Here are results for nine compounds from US10940188B2, “Compounds and methods for treatment and prevention of Flavivirus infection” (priority 2016, dated 2021).

Test [1] relates to ZIKV-induced cell death in SNB-19 cells. In words: ATP cell viability assay for ZIKV-induced cell death, SNB-19 cells. The format is cell-based, human. Conditions: ZIKV-infected SNB-19 cells; for IC50: Homo sapiens, read-out: Cell viability (IC50, uM) SNB-19. The method, then:
(§1) The reagent was reconstituted and prepared as described by the manufacturer. In order to measure the cell death caused by ZIKV infection, cells were cultured for 16 hours at 37° C. with 5% CO2 in assay plates, followed by the addition of ZIKV solution and incubation at 37° C. with 5% CO2 for 72 hours. ATPlite, the ATP monitoring reagent, was then added to the assay plates and they were incubated for 15 minutes. The resulting luminescence was measured using the ViewLux plate reader (Perkin Elmer). Data were normalized using the wells without cells as a control for 100% cell killing, and cell-containing wells without ZIKV infection were used as full cell viability (0% cell killing). […]
as §1, with “The ATPlite luminescence assay system assay kit (PerkinElmer) was used to determine cell viability. The reagent” for “The reagent”, “by the manufacture. In order” for “by the manufacturer. In order”, “followed by addition of” for “followed by the addition of”, “plates and incubated for” for “plates and they were incubated for”, “Elmer). Data was normalized using” for “Elmer). Data were normalized using”

For test [2], the system named is ZIKV-induced caspase 3/7 activity in hNPCs. In words: Caspase 3/7 activity assay, ZIKV-infected hNPCs. The class given is cell-based. Particulars: Homo sapiens, ZIKV-infected hNPCs; for IC50: read-out: Caspase 3 (IC50, uM) NPCs; for Emax: read-out: Caspase 3 (efficacy, %) NPCs. The method, then:
(§2) Caspase-Glo 3/7 assay kit (catalog number G8092; Promega, Madison, Wis.) was used to detect caspase 3/7 activity. Reagents were reconstituted as described in the protocol from the manufacturer. Polystyrene plates (384-well and 1536-well; regular tissue culture treated and PDL coated) were purchased from Greiner Bio-One (Monroe, N.C.). Cells were seeded in 384- and 1536-well assay plates and cultured at 37° C. with 5% CO2 for 16 hours. ZIKV solution was added to cells, followed by incubation at 37° C. with 5% CO2 for 6 hours. Caspase-Glo 3/7 was added to each well, unless otherwise specified, and incubated at room temperature for 30 minutes. The luminescence intensity of the assay plates was measured using a ViewLux plate reader (PerkinElmer). Data were normalized by using the cell-containing wells without ZIKV as a negative control (0% induction of caspase 3/7 activity) and wells containing ZIKV infected cells that induced caspase 3/7 activity were used as a positive control (100% induction of caspase 3/7 activity).
Human NPCs were seeded onto PDL coated 1536-well assay plates at 250 cells per 3 μl/well and incubated at 37° C. in 5% CO2 for 16 hours. Test compounds dissolved in DMSO were transferred to assay plates at a volume of 23 nl/well by an automated pintool workstation (Wako Automation, San Diego, Calif.). Compounds were incubated with cells for 30 minutes at 37° C. in 5% CO2, immediately followed by the addition of 2 μl/well of ZIKV. Incubation time of compound-treated cells with ZIKV varied based on assay format. Experiments measuring virus-induced caspase 3/7 activity required a 6 hour incubation of ZIKV in the presence compounds at 37° C. in 5% CO2. Following this incubation, 3.5 μl/well of caspase 3/7 reagent mixture was added to assay plates. The plates were incubated for 30 minutes at room temperature, and the resultant luminescence signal was measured using a ViewLux plate reader (Perkin Elmer). Experiments measuring virus-induced cell death required a 72-hour incubation of ZIKV in the presence of compounds at 37° C. in 5% CO2. Following this incubation, 3.5 μl/well of ATP content detection reagent was added to assay plates, incubated for 30 minutes at the room temperature, and the resultant luminescence signal was measured in a ViewLux plate reader.
(§3) Caspase-Glo 3/7 assay kit (Promega) was used to detect caspase 3/7 activity. Reagents were reconstituted as described in the protocol from the manufacturer. Cells were seeded in 384- and 1536-well assay plates and cultured at 37° C. with 5% CO2 for 16 hours. ZIKV solution was added to cells, followed by incubation at 37° C. with 5% CO2 for 6 hours. Caspase-Glo 3/7 was added to each well at a 1:1 ratio, unless otherwise specified, and incubated at room temperature for 30 minutes. The luminescence intensity of the assay plates was measured using a ViewLux plate reader (PerkinElmer). Data was normalized by using the cell-containing wells without ZIKV as a negative (0% induction of caspase 3/7 activity) control and wells containing ZIKV infected cells that induced caspase 3/7 activity were used as a positive control (100% induction of caspase 3/7 activity).
Human NPCs were seeded onto PDL coated 1536-well assay plates at 250 cells per 3 μl/well and incubated at 37° C. in 5% CO2 for 16 hours. Test compounds dissolved in DMSO were transferred to assay plates at a volume of 23 nl/well by an automated pintool workstation (Wako Automation, San Diego, Calif.). Compounds were incubated with cells for 30 minutes at 37° C. in 5% CO2, immediately followed by the addition of 2 μl/well of ZIKV. Incubation time of compound-treated cells with ZIKV varied based on assay format. Experiments measuring virus induced caspase 3/7 activity required a 6 hour incubation of ZIKV in the presence compounds at 37° C. in 5% CO2. […]

Test [3] deals with ZIKV-induced caspase 3/7 activity in SNB-19 cells. Kind of test: Caspase 3/7 activity assay, ZIKV-infected SNB-19 cells. The format is cell-based. Conditions: Homo sapiens, ZIKV-infected SNB-19 cells; for IC50: read-out: Caspase 3 (IC50, uM) SNB-19; for Emax: read-out: Caspase 3 (efficacy, %) SNB-19. The method, then:
as §2, with “activity). […]” for “activity).”
as §3, with “activity). […]” for “activity).”

Test [4] concerns ZIKV-induced cell death in human astrocytes. Kind of test: ATP cell viability assay for ZIKV-induced cell death, human astrocytes. The format is cell-based. Particulars: ZIKV-infected human astrocytes.
Test [5] concerns ZIKV-induced caspase 3/7 activity in human astrocytes. In words: Caspase 3/7 activity assay, ZIKV-infected human astrocytes. The format is cell-based. Conditions: Astrocyte, ZIKV-infected human astrocytes; for IC50: read-out: Caspase 3 (IC50, uM) Astrocyte; for Emax: read-out: Caspase 3 (efficacy, %) Astrocyte. The protocol: as §2, with “activity). […]” for “activity).”
as §3, with “activity). […]” for “activity).”

Molecules are shown by their SMILES.

On to `COc1ccc(-c2coc3cc(O)ccc3c2=O)cc1` [Formononetin], for which, in test [1], the “Cell viability (efficacy, %) SNB-19” value amounted to 0.0%. The values for the IC50 in test [2], in test [3] and in test [5] were 10.9 µM, 12.3 µM and 14.6 µM, respectively. Besides, the Emax in test [2] was determined as 88.3%; in test [3], 104%; in test [5], 94.7%. In addition, the “Cell viability (efficacy, %) Astrocyte” value in test [4] came out at 0.0%.

For `O=C(/C=C/c1ccc(O)cc1)c1ccc(O)cc1O` [Isoliquiritigenin], the IC50 in test [1] was 3.08 µM; in test [2] it was 1.84 µM; in test [3], 2.18 µM; in test [5] it was 3.08 µM. For the same compound, in test [1], the “Cell viability (efficacy, %) SNB-19” value was 36.3%. Besides, the values for the Emax in test [2], in test [3] and in test [5] were 89%, 96.9% and 95.1%, respectively. Also, the “Cell viability (efficacy, %) Astrocyte” value in test [4] came to 0.0%.

`O=C(O)[C@@H](c1ccc(OCc2ccc3ccccc3n2)cc1)C1CCCC1` [Veliflapon]: the “Cell viability (efficacy, %) SNB-19” value in test [1] is reported as 0.0%. In addition, the figures for the IC50 in test [2], in test [3] and in test [5] were 9.75 µM, 13.8 µM and 9.2 µM, respectively. Moreover, the Emax came out at 74.3% in test [2], 70% in test [3] and 65.9% in test [5]. Besides, the “Cell viability (efficacy, %) Astrocyte” value in test [4] turned out to be 0.0%.

As for `COc1ccc([C@@H]2CC(=O)c3c(O)cc(O)cc3O2)cc1O` [Hesperetin], the “Cell viability (efficacy, %) SNB-19” value in test [1] is recorded as 0.0%. Further, the IC50 was determined as 10.9 µM in test [2], 17.3 µM in test [3] and 16.4 µM in test [5]. For the same compound, the Emax in test [2] is 79.6%; in test [3], 86%; in test [5], 72.7%. Further, the “Cell viability (efficacy, %) Astrocyte” value in test [4] is listed as 0.0%.

`Cc1nc(-c2ccc(OCC(C)C)c(C#N)c2)sc1C(=O)O` [Febuxostat]: the IC50 in test [1] came out at 3.66 µM; in test [2], 3.88 µM; in test [3], 2.91 µM; in test [5], 2.31 µM. For the same compound, the “Cell viability (efficacy, %) SNB-19” value in test [1] is recorded as 68.4%. Also, the Emax in test [2] is 83.2%; in test [3], 104%; in test [5] it was 84.8%. Further, the “Cell viability (efficacy, %) Astrocyte” value in test [4] is recorded as 0.0%.

As to `CN1CC[C@@]2(C)c3cc(OC(=O)Nc4ccccc4)ccc3N(C)[C@@H]12` [Phenserine], the “Cell viability (efficacy, %) SNB-19” value in test [1] stood at 0.0%. Further, the IC50 came to 25.9 µM in test [2], 19.5 µM in test [3] and 25.9 µM in test [5]. The Emax came to 51.5% in test [2], 38.4% in test [3] and 47.4% in test [5]. The “Cell viability (efficacy, %) Astrocyte” value in test [4] stood at 0.0%.

On to `O=c1cc(-c2ccccc2)oc2cc(O)cc(O)c12` [5,7-Dihydroxyflavone], for which the “Cell viability (efficacy, %) SNB-19” value in test [1] stood at 0.0%. Also, the values for the IC50 in test [2], in test [3] and in test [5] were 5.48 µM, 8.69 µM and 15.5 µM, respectively. For the same compound, the Emax in test [2] was determined as 51%; in test [3], 42.7%; in test [5] it was 55.1%. Further, the “Cell viability (efficacy, %) Astrocyte” value in test [4] came to 0.0%.

Consider `O=C1C[C@@H](c2ccc(O)cc2)Oc2cc(O)cc(O)c21` [Naringenin], for which the “Cell viability (efficacy, %) SNB-19” value in test [1] is given as 0.0%. Besides, the IC50 turned out to be 15.5 µM in test [2], 15.5 µM in test [3] and 17.3 µM in test [5]. The Emax in test [2] was 63.4%; in test [3], 66.3%; in test [5], 65.2%. In addition, in test [4], the “Cell viability (efficacy, %) Astrocyte” value was 0.0%.

As to `O=c1c(-c2ccc(O)cc2)coc2cc(O[C@@H]3O[C@H](CO)[C@@H](O)[C@H](O)[C@H]3O)cc(O)c12` [Genistin], the “Cell viability (efficacy, %) SNB-19” value in test [1] is 0.0%. The IC50 in test [2] is 17.3 µM; in test [3] it was 23.1 µM; in test [5], 25.9 µM. The Emax in test [2] was 58.6%; in test [3], 58.1%; in test [5], 60.2%. The “Cell viability (efficacy, %) Astrocyte” value in test [4] was determined as 0.0%.
